From patent US20150148235A1, “HERBICIDE-RESISTANT SUNFLOWER PLANTS WITH MULTIPLE HERBICIDE RESISTANT ALLELES OF AHASL1 AND METHODS OF USE” (NIDERA S.A., priority 2013, published 2015)

Assays:
[1] = system: AHAS enzyme, A122T/A205V Heterozygous sunflower; assay: AHAS enzyme activity assay, leaf extract; format: biochemical, Helianthus annuus; settings: A122T/A205V heterozygous hybrid (Set 1); 100 μM
Protocol: (§1) Twelve greenhouse grown sunflower plants from each of the lines depicted in Table 21 were bulked and subjected to an AHAS enzyme activity assay via the method of Singh et al. (1988) Anal. Biochem. 171:173-179. Each activity assay was repeated twice. Due to the large number of samples, the experiment was split into two sets (Table 21).
(§2) Young, actively growing leaves, from four week old plantlets, were ground in a mortar and pestle with liquid N2 and extracted with a buffer composed of 100 mM Pyruvate, 200 mM KH2PO4, 20 mM MgCl2, 2 mM thiamine pyrophosphate and […]. Plant extracts were then spun through a 10 mL Zeba TM desalt spin column (Pierce #89893) as per the manufacturer's recommendation. The inhibition assay was performed as described by Singh et al. (1988) Anal. Biochem. 171:173-179. Assays were conducted in a 96-well format. Fifty μl of inhibitor was added to each well containing 50 μl of soluble protein extract to give final concentrations of 0.78, 1.56, 3.125, 6.25, 12.5, 25, 50 and 100 μM imazamox or 0.78, 1.56, 3.125, 6.25, 12.5, 25, 50 and 100 μM imazapyr. Zero herbicide controls were also included for each line. Reactions were processed as outlined by Singh et al. (1988) Anal. Biochem. 171:173-179. Absorbance was measured at 530 nm. AHAS activity, expressed as the mean of the absorbance values for each treatment, was presented as a percentage of the mean of the zero-herbicide controls.

[2] = system: AHAS enzyme, A122T Homozygous sunflower; assay: AHAS enzyme activity assay, leaf extract; format: biochemical, Helianthus annuus; settings: A122T homozygous hybrid (Set 1); 100 μM
Protocol: as §1, §2

[3] = system: AHAS enzyme, A205V Homozygous sunflower; assay: AHAS enzyme activity assay, leaf extract; format: biochemical, Helianthus annuus; settings: A205V homozygous hybrid (Set 1); 100 μM
Protocol: as §1, §2

[4] = system: sunflower hybrids and lines (A122T, A205V, A205V/A122T); assay: Field trial North Dakota 2006, phytotoxicity ratings after imazamox or imazapyr, Example 3; format: in vivo, Helianthus annuus; settings: for Phytotoxicity Rating (% Crop Injury): 160 g ai/ha + 0.25% NIS
Protocol: • Spray volume: 10 gallons per acre (GPA) (or 100 liters/ha) for backpack sprayer or 20 GPA (or 200 liters/ha) for tractor mounted boom • Growth Stage at Herbicide Application: 2-4 leaves
Entry 15 (WT Maintainer line) was left unsprayed in all treatment blocks.
Phytotoxicity ratings were assessed at 7 and 21 days following herbicide application.
The data was subjected to an ANOVA analysis and the means from the 3 repetitions are presented in Table 7 (phytotoxicity at 7 days post-treatment) and Table 8 (phytotoxicity at 21 days post-treatment).

## CC(C)C1(C)N=C(c2ncccc2C(=O)O)NC1=O (centres unmarked) [imazapyr]
[1]
  AHAS activity: 60%
[2]
  AHAS activity: 64 % of untreated control
[3]
  AHAS activity: 42 % of untreated control
[4]; 1-hybrid (WT × IMI restorer, A205 hetero), 7 DAT
  Phytotoxicity Rating (% Crop Injury): 16.7%
[4]; 1-hybrid (WT × IMI restorer, A205 hetero), 21 DAT
  Phytotoxicity Rating (% Crop Injury): 20.0%
[4]; 3-hybrid (WT × IMI restorer, A205 hetero), 7 DAT
  Phytotoxicity Rating (% Crop Injury): 35.0%
[4]; 3-hybrid (WT × IMI restorer, A205 hetero), 21 DAT
  Phytotoxicity Rating (% Crop Injury): 43.3%
[4]; 4-line (IMI Restorer, A205 homo), 7 DAT
  Phytotoxicity Rating (% Crop Injury): 11.7%
[4]; 4-line (IMI Restorer, A205 homo), 21 DAT
  Phytotoxicity Rating (% Crop Injury): 6.7%
[4]; 6-hybrid (IMI CMS × IMI restorer, A205 homo), 7 DAT
  Phytotoxicity Rating (% Crop Injury): 8.3%
[4]; 6-hybrid (IMI CMS × IMI restorer, A205 homo), 21 DAT
  Phytotoxicity Rating (% Crop Injury): 3.3%
[4]; 7-hybrid (WT-CMS × IMI restorer, A205 hetero), 7 DAT
  Phytotoxicity Rating (% Crop Injury): 21.7%
[4]; 7-hybrid (WT-CMS × IMI restorer, A205 hetero), 21 DAT
  Phytotoxicity Rating (% Crop Injury): 36.7%
[4]; 8-hybrid (WT × GM40 restorer, A122 hetero), 7 DAT
  Phytotoxicity Rating (% Crop Injury): 13.3%
[4]; 8-hybrid (WT × GM40 restorer, A122 hetero), 21 DAT
  Phytotoxicity Rating (% Crop Injury): 11.7%
[4]; 9-line (GM40 restorer, A122 homo), 7 DAT
  Phytotoxicity Rating (% Crop Injury): 8.3%
[4]; 9-line (GM40 restorer, A122 homo), 21 DAT
  Phytotoxicity Rating (% Crop Injury): 5.0%
[4]; 10-hybrid (IMI CMS × GM40 restorer, A205/A122 hetero/double), 7 DAT
  Phytotoxicity Rating (% Crop Injury): 3.3%
[4]; 10-hybrid (IMI CMS × GM40 restorer, A205/A122 hetero/double), 21 DAT
  Phytotoxicity Rating (% Crop Injury): 0.0%
[4]; 11-hybrid (GM40 CMS × IMI restorer, A205/A122 hetero/double), 7 DAT
  Phytotoxicity Rating (% Crop Injury): 3.3%
[4]; 11-hybrid (GM40 CMS × IMI restorer, A205/A122 hetero/double), 21 DAT
  Phytotoxicity Rating (% Crop Injury): 0.0%
[4]; 12-hybrid (IMI CMS × GM40 restorer, A205/A122 hetero/double), 7 DAT
  Phytotoxicity Rating (% Crop Injury): 5.0%
[4]; 12-hybrid (IMI CMS × GM40 restorer, A205/A122 hetero/double), 21 DAT
  Phytotoxicity Rating (% Crop Injury): 1.7%
[4]; 13-hybrid (GM40 CMS × GM40 restorer, A122 homo), 7 DAT
  Phytotoxicity Rating (% Crop Injury): 5.0%
[4]; 13-hybrid (GM40 CMS × GM40 restorer, A122 homo), 21 DAT
  Phytotoxicity Rating (% Crop Injury): 1.7%
[4]; 14-hybrid (GM40 CMS × GM40 restorer, A122 homo), 7 DAT
  Phytotoxicity Rating (% Crop Injury): 8.3%
[4]; 14-hybrid (GM40 CMS × GM40 restorer, A122 homo), 21 DAT
  Phytotoxicity Rating (% Crop Injury): 3.3%
[4]; 15-hybrid (WT × GM40 restorer, A122 hetero), 7 DAT
  Phytotoxicity Rating (% Crop Injury): 8.3%
[4]; 15-hybrid (WT × GM40 restorer, A122 hetero), 21 DAT
  Phytotoxicity Rating (% Crop Injury): 21.7%
[4]; 16-hybrid (WT × GM40 restorer, A122 hetero), 7 DAT
  Phytotoxicity Rating (% Crop Injury): 10.0%
[4]; 16-hybrid (WT × GM40 restorer, A122 hetero), 21 DAT
  Phytotoxicity Rating (% Crop Injury): 23.3%
[4]; heterozygous A205V entries, 160 g ai/ha, 21 DAT
  phytotoxicity: 20-43%
